Test: Visual Analogue Scale gastrointestinal side effects after duodenal or ileocecal dosing (Example 2)
Format: in vivo, human
Conditions: for Incidence of Visual-Analogue-Scale score >1, abdominal cramping / Incidence of Visual-Analogue-Scale score >1, abdominal pain / Incidence of Visual-Analogue-Scale score >1, nausea / Incidence of Visual-Analogue-Scale score >1, regurgitation / Incidence of Visual-Analogue-Scale score >4, abdominal cramping / Incidence of Visual-Analogue-Scale score >4, abdominal pain / Incidence of Visual-Analogue-Scale score >4, nausea / Incidence of Visual-Analogue-Scale score >4, regurgitation: any time during 96 hour post-dose, subjects reporting/total; for Mean Cumulative Score (Visual Analogue Scale), abdominal cramping / Mean Cumulative Score (Visual Analogue Scale), abdominal pain / Mean Cumulative Score (Visual Analogue Scale), nausea / Mean Cumulative Score (Visual Analogue Scale), regurgitation: entire 96 hour post-dose period
Method: Healthy male subjects were divided into two groups. […] All subjects were dosed after an overnight fast.
Prior to dosing and each blood sampling time, each subject filled out a questionnaire, which consisted of a series of “Visual Analogue Scales” in which the subject was required to rate, on a scale of 0–10, the severity of certain potential side effects. The subjects were instructed that “0” indicated an absent effect and “10” indicated the worst possible effect. The subjects were instructed to interpolate between 0 and 10 for moderate side effects.
Analysis of side effect visual-analogue-scale data was carried out in two formats. In the first format (Table V), the analysis concentrated on the general incidence of side effects of a particular type. For each side effect type (e.g., abdominal pain), Table V reports the number of subjects who reported a score >1 at any time during the 96 hr post-dosing, and the number of subjects who reported a score >4 at any time during the 96 hr post-dosing. This analysis assumes that all scores >1 represent a real side effect occurrence, however mild or severe. A score >4 is presumed to reflect a moderate-to-severe side effect occurrence.
In the second format (Table VI), the analysis reflects the general severity and duration of side effects. For a particular side effect (e.g., Abdominal Pain) in a particular subject, all visual-analogue-scale scores (over the 96 hr post-dose period) were summed to give a “cumulative score” over the entire time period of evaluation. “Cumulative scores” for all members of a treatment group were summed, and divided by the number of subjects in the group, to give a Mean Cumulative Score. […] Table VI presents Mean Cumulative Scores for abdominal pain, nausea, regurgitation, and abdominal cramping.

[1] = 2 g directly into the ileocecal region
[2] = 2 g solution directly into the duodenum, n 5
[3] = 2 g solution directly into the ileocecal region, n 6

For `CC[C@H]1OC(=O)[C@H](C)[C@@H](O[C@H]2C[C@@](C)(OC)[C@@H](O)[C@H](C)O2)[C@H](C)[C@@H](O[C@@H]2O[C@H](C)C[C@H](N(C)C)[C@H]2O)[C@](C)(O)C[C@@H](C)CN(C)[C@H](C)[C@@H](O)[C@]1(C)O` [azithromycin, 9a-aza-9a-methyl-9-deoxo-9a-homoerythromycin A], the “Incidence of Visual-Analogue-Scale score >1, abdominal cramping” value (2 g directly into the duodenum) was 5/5, the “Incidence of Visual-Analogue-Scale score >1, abdominal pain” value (2 g directly into the duodenum) was 4/5 and the “Incidence of Visual-Analogue-Scale score >1, nausea” value (2 g directly into the duodenum) was 2/5. The “Incidence of Visual-Analogue-Scale score >1, regurgitation” value (2 g directly into the duodenum) was 3/5, the “Incidence of Visual-Analogue-Scale score >4, abdominal cramping” value (2 g directly into the duodenum) was 0/5 and the “Incidence of Visual-Analogue-Scale score >4, abdominal pain” value (2 g directly into the duodenum) was 0/5. For the same compound, the “Incidence of Visual-Analogue-Scale score >4, nausea” value (2 g directly into the duodenum) was 1/5, the “Incidence of Visual-Analogue-Scale score >4, regurgitation” value (2 g directly into the duodenum) was 0/5 and the “Incidence of Visual-Analogue-Scale score >1, abdominal cramping” value [1] was 2/6. The “Incidence of Visual-Analogue-Scale score >1, abdominal pain” value [1] was 2/6, the “Incidence of Visual-Analogue-Scale score >1, nausea” value [1] was 2/6 and the “Incidence of Visual-Analogue-Scale score >1, regurgitation” value [1] was 0/6. The “Incidence of Visual-Analogue-Scale score >4, abdominal cramping” value [1] was 0/6, the “Incidence of Visual-Analogue-Scale score >4, abdominal pain” value [1] was 0/6 and the “Incidence of Visual-Analogue-Scale score >4, nausea” value [1] was 0/6. For the same compound, the “Incidence of Visual-Analogue-Scale score >4, regurgitation” value [1] was 0/6, the “Mean Cumulative Score (Visual Analogue Scale), abdominal cramping” value [2] was 13.2 and the “Mean Cumulative Score (Visual Analogue Scale), abdominal pain” value [2] was 13.4. The “Mean Cumulative Score (Visual Analogue Scale), nausea” value [2] was 11.6, the “Mean Cumulative Score (Visual Analogue Scale), regurgitation” value [2] was 7.2 and the “Mean Cumulative Score (Visual Analogue Scale), abdominal cramping” value [3] was 3.3. The “Mean Cumulative Score (Visual Analogue Scale), abdominal pain” value [3] was 2.7, the “Mean Cumulative Score (Visual Analogue Scale), nausea” value [3] was 2.0 and the “Mean Cumulative Score (Visual Analogue Scale), regurgitation” value [3] was 0.
